A short description of series [1]: Determination of reduction potential by cyclic voltammetry. The conditions noted are these: for Epc(V): cyclic voltammetry in dimethylformamide at Hg, vs. Ag/AgNO3; for Reduction process: cyclic voltammetry in dimethylformamide. The format is physicochemical. As for the experimental part:
The reduction potentials of misonidazole, ^99TcO(PnAO), and ^99Tc-hypoxia-localizing tracers were determined by cyclic voltammetry (C.V.) in dimethylformamide. […] The reference electrode was Ag/AgNO3 with an acetonitrile filling solution saturated with LiCl. The counter electrode was a platinum wire. Voltamograms at mercury were determined at scan rates of 50, 100, 200, and 500 mV/s.
The solutions used in C.V. studies contained test sample at a concentration of 0.2-0.7 mM and tetrabutylammonium tetrafluoroborate (Bu4NBF4) or tetrabutylammonium hexafluorophosphate (Bu4NPF6) supporting electrolyte at a concentration of 0.1M. The solution was deoxygenated by bubbling solvent-saturated nitrogen or argon through the solution for 15 minutes. Variations in the reference potential were accounted for by determining the C.V. of a Ru(acac)3 standard on a daily basis.

Series [2] relates to Calcium-tolerant ventricular myocytes. Kind of series: Isolated cardiac myocyte studies, retention of radioactivity. Type of series: cell-based, male Sprague Dawley rats. The conditions noted are these: isolated myocytes. From the text: Calcium-tolerant ventricular myocytes were isolated from hearts of male Sprague Dawley rats (200 g) according to the procedure of Wittenberg and Robinson (B. A. Wittenberg and T. F. Robinson, Cell Tissue Res., 216: 231, 1981) with modifications described previously (W. Rumsey, C. Schlosser, E. M. Nuutinen, M. Robiolio and D. F. Wilson, J. Biol. Chem., 265 (26): 15392, 1990). Cells were used immediately following morphological analysis (using a hemocytometer) of viability and were maintained at 37° C. during the experiments. The number of quiescent, rod shaped cells ranged from 70-90% within a total population of 5-9×10^6 cells.
The isolated myocytes were maintained in either a normoxic, hypoxic or anoxic state. Hypoxia was induced by providing an atmosphere of argon atop of the cells and sealing the flask during the incubation period. Glucose oxidase plus catalase (5/5 mg) was added to argon treated cells to provide anoxia. Cells were suspended (6.5-7.5×10^4 cells/ml) in isolation media and aliquots were added to incubation vials maintained at 37° C.
After incubation with a test compound, myocytes were deproteinated with 1% ice-cold perchloric acid and centrifuged at 12,000 rpm for 30 sec. The supernatent was separated from the pellet and each counted using a LKB 1282 gamma counter. Alternatively, myocytes were separated from the suspending media by passing the cells through 99% dibutyl phthalate by centrifugation at 12,000 rpm for 30 sec. The three phases were separated and counted as described above. Results for the Tc-99m complex of the compound in Example 1 are given below:
Values represent means ±S.E.M. for the number of experiments noted in the parentheses. The values are the percent of total radioactivity represented by each case. PCA pellet=perchloric acid-precipitated pellet which represents the activity associated with proteins/membranes. Cell pellet=whole cells passed through a layer of dibutyl phthalate (oil).
Several Tc-99m complexes were examined in isolated myocytes using the protocol described above. The percentage of activity retained in the cell pellet was determined under anoxic and normoxic states.

Series [3] has as its system hypoxic ischemic border zone. The series is described as follows: Rabbit focal myocardial ischemia model (LAD occlusion), double-label autoradiography. The conditions noted are these: permanent LAD coronary artery ligation, intravenous tracer, heart sections. The format is in vivo. On the procedure: A model of focal myocardial ischemia in the rabbit was developed, using permanent ligation of the left anterior descending (LAD) coronary artery. The model consisted of two studies. In the first, relative regional myocardial blood flow (MBF) and relative regional myocardial rate of glucose metabolism (MMRgl) were determined by autoradiography using a double-label study with the flow tracer ^99mTcCl(CDO)3MeB (R. K. Narra et al., J. Nucl. Med., 1989; 30:1830-1837) and ^14C-deoxy-glucose for MMRgl (L. Sokoloff et al., J. Neurochem., 1977, 28, 897-916). ^14C-deoxyglucose and the ^99mTc-hypoxia-localizing tracer were administered to a second group of rabbits with LAD coronary artery occlusion.
After the surgical preparation and 20 minutes of LAD occlusion, ^14C-deoxyglucose (130-150 μCi) was injected as an intravenous bolus, and timed arterial blood samples were obtained. Twenty-five minutes later, ^99mTcCl(CDO)3MeB (10-12 mCi) was administered intravenously. Five minutes later, the rabbits were sacrificed by intravenous injection of Nembutal and potassium chloride. The heart was excised, frozen in liquid Freon-22, and 20 μm coronal sections obtained with a Microtome. Autoradiographs were obtained on all sections. For the first exposure (˜14 hours duration) of Kodak XAR film, extra heavy duty aluminum foil was interposed between the tissue and film to block completely the radiation emanating from ^14C to obtain the MBF information derived from ^99mTcCl(CDO)3MeB alone. After three days (to allow for decay of ^99mTc); a second autoradiograph was obtained without foil. The second exposure lasted 6-8 days, and,provided an image of the regional distribution of ^14C-deoxyglucose.
In a separate experiment using the rabbit LAD occlusion model and the double-label autoradiography procedures described above, the performance of the ^99mTc complex of the ligand described in Example 1 was compared to that of ^14C-misonidazole.

In the case of `CC(=NO)C(C)(C)NCCCNC(C)(C)C(Cn1ccnc1[N+](=O)[O-])=NO` [Example 1, 3,3,9,9-Tetramethyl-1-(2-nitro-1H-imidazo-1-yl)-4,8-diazaundecane-2,10-dione dioxime], in series [1] (first or only reduction listed), the “Epc(V)” value is −1.52 V and the Reduction process result was “reversible”.

Turning to `CC(=NO)C(C)(C)NCCCNC(C)(C)C(Cn1cnc([N+](=O)[O-])c1)=NO` [Example 2, 3,3,9,9-Tetramethyl-1-(4-nitro-1H-imidazo-1-yl)-4,8-diazaundecane-2,10-dione dioxime], in series [1] (first or only reduction listed), the “Epc(V)” value is −1.81 V and the Reduction process entry is reported as “reversible”. The matching figures for `CC(=NO)C(C)(C)NCCCNC(C)(C)C(CCn1ccnc1[N+](=O)[O-])=NO` [Example 3, 4,4,10,10-Tetramethyl-1-(2-nitro-1H-imidazo-1-yl)-5,9-diazadodecane-3,11-dione dioxime]: −1.54 V and “reversible”. The matching figures for `CC(=NO)C(C)(C)NCC(O)CNC(C)(C)C(Cn1ccnc1[N+](=O)[O-])=NO` (centres unmarked) [Example 4, 6-Hydroxy-3,3,9,9-tetramethyl-1-(2-nitro-1H-imidazo-1-yl)-4,8-diazaundecane-2,10-dione dioxime]: −1.51 V and “reversible”. On the same counts, the results for `CC(=NO)C(C)(C)NCC(CNC(C)(C)C(C)=NO)NC(=O)Cn1ccnc1[N+](=O)[O-]` (centres unmarked) [Example 5, 3,3,9,9-Tetramethyl-6-((2-nitro-1H-imidazo-1-yl)acetamido)-4,8-diazaundecane-2,10-dione dioxime] are −1.52 V and “reversible”. Turning to `CC1=[N+](O)[99Tc-]23(=[O])[N](CCC[N]2C1(C)C)C(C)(C)C(Cn1cnc([N+](=O)[O-])c1)=[N+]3[O-]` [Example 6a, [^99Tc]Oxo[[3,3,9,9-tetramethyl-1-(4-nitro-1H-imidazo-1-yl)-4,8-diazaundecane-2,10-dione dioximato]-(3-)-N,N′,N″,N′″]technetium(V)], in series [1] (first or only reduction listed), the “Epc(V)” value is reported as −1.81 V and the Reduction process entry is reported as “reversible”. Besides, in series [1] (second reduction listed), the “Epc(V)” value is recorded as −2.02 V and the Reduction process entry is given as “irreversible”. On the same counts, the results for `CC1=[N+](O)[99Tc-]23(=[O])[N](CCC[N]2C1(C)C)C(C)(C)C(CCn1ccnc1[N+](=O)[O-])=[N+]3[O-]` [Example 19, [^99Tc]Oxo[[4,4,10,10-tetramethyl-1-(2-nitro-1H-imidazo-1-yl)-5,9-diazadodecane-3,11-dione dioximato](3-)-N,N′,N″,N′″]technetium(V)] are −1.53 V, “reversible”, −2.07 V and “irreversible”. The term melting point denotes the temperature, or range, at which the solid turns liquid. Compound `CC(=NO)C(C)(C)NCC(C)CNC(C)(C)C(Cn1ccnc1[N+](=O)[O-])=NO` (centres unmarked) [Example 23, 3,3,6,9,9-Pentamethyl-1-(2-nitro-1H-imidazol-1-yl)-4,8-diazaundecane-2,10-dione dioxime] had a melting point of 167 to 168 °C. Still for that read-out and setting: as for `COC(=O)CCC(=NO)C(C)(C)NCCCNC(C)(C)C(Cn1ccnc1[N+](=O)[O-])=NO` [Example 24, 12-Methoxycarbonyl-3,3,9,9-tetramethyl-1-(2-nitro-1H-imidazol-1-yl)-4,8-diazadodecane-2,10-dione dioxime], the figure is 137 to 139 °C; as for `CCOCC(=NO)C(C)(C)NCCCNC(C)(C)C(Cn1ccnc1[N+](=O)[O-])=NO` [Example 25, 11-Ethoxy-3,3,9,9-tetramethyl-1-(2-nitro-1H-imidazol-1-yl)-4,8-diazaundecane-2,10-dione dioxime], 122 to 123 °C.

The compound `CC(=NO)C(C)(C)NCC(CNC(C)(C)C(C)=NO)CC(O)Cn1ccnc1[N+](=O)[O-]` (centres unmarked) [Example 26, 3,3,9,9-Tetramethyl-6-[2-hydroxy-3-(2-nitro-1H-imidazol-1-yl)propyl]-4,8-diazaundecane-2,10-dione dioxime] returned a melting point of 185 to 187 °C. On to `CC(=NO)C(C)(C)NCCCNC(C)(C)C(Cn1cc(C)nc1[N+](=O)[O-])=NO` [Example 27, 3,3,9,9-Tetramethyl-1-(4-methyl-2-nitro-1H-imidazol-1-yl)-4,8-diazaundecane-2,10-dione dioxime], for which the melting point is 140 to 141 °C.

Consider `CC(=NO)C(C)(C)NCCCNC(C)(C)C(Cn1c(C)cnc1[N+](=O)[O-])=NO` [Example 28, 3,3,9,9-Tetramethyl-1-(5-methyl-2-nitro-1H-imidazol-1-yl)-4,8-diazaundecane-2,10-dione dioxime], for which the melting point was 150 to 152 °C. On the same count and under the same terms, as for `CC(=NO)C(C)(C)NCC(F)(F)CNC(C)(C)C(CCn1ccnc1[N+](=O)[O-])=NO` [Example 30, 6,6-Difluoro-3,3,9,9-tetramethyl-12-(2-nitro-1H-imidazol-1-yl)-4,8-diazadodecane-2,10-dione dioxime], the figure is 90 to 92 °C. On the same count and under the same terms, as for `CC(=NO)C(C)(C)NCCCNC(C)(C)C(COCC(O)Cn1ccnc1[N+](=O)[O-])=NO` (centres unmarked) [Example 31, 3,3,9,9-Tetramethyl-1-[2-hydroxy-3-(2-nitro-1H-imidazol-1-yl)propoxy]-4,8-diazaundecane-2,10-dione dioxime], the figure is 134 to 135 °C; as for `CC(=NO)C(C)(C)NCC(O)CNC(C)(C)C(CCn1ccnc1[N+](=O)[O-])=NO` (centres unmarked) [Example 32, 6-Hydroxy-3,3,9,9-tetramethyl-12-(2-nitro-1H-imidazol-1-yl)-4,8-diazadodecane-2,10-dione dioxime], 62 to 64 °C. As to `Cc1ncc([N+](=O)[O-])n1CCO` [Metronidazole, reference compound], in series [1] (first or only reduction listed), the “Epc(V)” value was −1.62 V and the Reduction process entry was “reversible”.

On to `COCC(O)Cn1ccnc1[N+](=O)[O-]` (centres unmarked) [Misonidazole, reference compound], for which, in series [1] (first or only reduction listed), the “Epc(V)” value is −1.49 V and the Reduction process result is “reversible”. For the compound `CC(=NO)C(C)(C)NCC(O)CNC(C)(C)C(C)=NO` (centres unmarked) [^99mTc Complex of 6-hydroxy-PnAO, 6-hydroxy PnAO(6-hydroxy-3,3,9,9-tetramethyl-4,8-diazaundecane-2,10-dione dioxime), metal not drawn, reference compound], the Anoxia/normoxia ratio in series [2] (% in Cell Pellet) was 1.3. Moreover, in series [2] (several Tc-99m complexes), the “% in Cell Pellet, Anoxia” value is 9.2 (n = 1) % and the “% in Cell Pellet, Normoxia” value is 7.1 (n = 1) %. Turning to ^14C-misonidazole, the “regional myocardial distribution pattern (autoradiography)” value in series [3] was “high uptake in the hypoxic border zone of the ischemic territory and low uptake in normoxic regions”.

Source of the values: US6958141B2, “Rhenium and technetium complexes containing a hypoxia-localizing moiety” (Bracco International B.V., priority 1991, dated 2005).
